According to PubChem BioAssay (NCI):
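Five concentrations, 48 hours, 96-well plates. TGI denotes the concentration required for complete inhibition of growth.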

What was measured:
Assay in all cases: DTP human tumour cell line panel, 48 h
K-562 leukemia = test system: K-562 leukemia
UACC-257 melanoma = test system: UACC-257 melanoma
HL-60(TB) leukemia = test system: HL-60(TB) leukemia
ACHN renal = test system: ACHN renal
SK-MEL-5 melanoma = test system: SK-MEL-5 melanoma
MOLT-4 leukemia = test system: MOLT-4 leukemia
SF-295 CNS = test system: SF-295 CNS
HCT-15 colon = test system: HCT-15 colon
UO-31 renal = test system: UO-31 renal
TK-10 renal = test system: TK-10 renal
NCI-H226 lung = test system: NCI-H226 lung
NCI-H23 lung = test system: NCI-H23 lung
786-0 renal = test system: 786-0 renal
A549 NSCLC = test system: A549 NSCLC
SN12C renal = test system: SN12C renal
SF-539 CNS = test system: SF-539 CNS
UACC-62 melanoma = test system: UACC-62 melanoma
SF-268 CNS = test system: SF-268 CNS
T-47D breast = test system: T-47D breast

SMILES	TGI (K-562 leukemia) [µM]	TGI (UACC-257 melanoma) [µM]	TGI (HL-60(TB) leukemia) [µM]	TGI (ACHN renal) [µM]	TGI (SK-MEL-5 melanoma) [µM]	TGI (MOLT-4 leukemia) [µM]	TGI (SF-295 CNS) [µM]	TGI (HCT-15 colon) [µM]	TGI (UO-31 renal) [µM]	TGI (TK-10 renal) [µM]	TGI (NCI-H226 lung) [µM]	TGI (NCI-H23 lung) [µM]	TGI (786-0 renal) [µM]	TGI (A549 NSCLC) [µM]	TGI (SN12C renal) [µM]	TGI (SF-539 CNS) [µM]	TGI (UACC-62 melanoma) [µM]	TGI (SF-268 CNS) [µM]	TGI (T-47D breast) [µM]
CC1=CC(=O)NCCN1C	> 100	> 100	> 100	> 100	> 100	> 100	> 100	> 100	> 100	> 100	> 100	> 100	> 100	> 100	> 100	> 100	> 100	> 100	
CCCCCCCCCCCCCCCCCc1cccc(OCOCCOC)c1CO	> 100	> 100	> 100	> 100	> 100	> 100	> 100	> 100	> 100	> 100	> 100	> 100	> 100	> 100		> 100	> 100	> 100	
CCN(CC)Cc1cc(Nc2ccnc3ccc4c(nnn4C)c23)ccc1O	33	28.8	50.6	8.38	29.9	> 100	25.9	13.5	23.6	76		25.6	20.8	27	31.8	18.4	30.9	29.9	63.5
CC1=CC(=O)NP(=O)(Oc2ccc(C)cc2)N1 (stereo not drawn)	> 100	> 100	> 100	> 100	> 100	> 100	> 100	> 100	> 100	> 100	> 100	> 100	> 100		> 100	> 100	> 100	> 100	
COc1ccccc1N1C(=O)/C(=C\c2cccc(Oc3ccccc3)c2)SC1c1ccccc1 (stereo not drawn)	> 100	> 100	39.4	> 100	32.8	> 100	> 100	> 100	> 100	> 100		98.1	> 100	> 100	> 100	> 100	> 100	> 100	> 100
Clc1cccc(Cl)c1C1SCC2=Nc3ccccc3CN21 (stereo not drawn)	> 100	> 100	> 100		29.2	> 100	33.8	> 100	43.2	> 100		34.7	32.4	56.5	> 100	32.9	> 100	> 100	85.1
N#CCCN(c1ccc(/C=C2\N=C(c3ccc(Cl)cc3)OC2=O)cc1)S(=O)(=O)c1ccccc1	> 100	> 100	> 100	> 100	> 100	> 100	> 100	> 100	> 100	> 100	> 100	> 100	> 100	> 100	> 100	> 100	> 100	> 100	
O=C1CCC(c2ccccc2)C(O)(C(=O)O)C1 (stereo not drawn)	> 100	> 100	> 100	> 100	> 100	> 100	> 100	> 100	> 100	> 100	> 100	> 100	> 100	> 100	> 100	> 100	> 100	> 100	
Clc1ccc2c(NCCCCN=Cc3ccccc3)ccnc2c1	> 100	26		49	26.5	25.7	28	33.1	40.3	64	20	25.1	22.2	31.3	21.5	24.7		35	45.7
CC1CN=C(Nc2ccc(S(N)(=O)=O)cc2)S1 (stereo not drawn)	> 100	> 100	> 100	> 100	> 100	> 100	> 100	> 100	> 100	> 100		> 100	> 100	> 100	> 100	> 100		> 100	> 100
Cc1cc(=O)[nH]c(NNC(C#N)c2ccc(O)cc2)n1 (stereo not drawn)	> 100	> 100	> 100	> 100	> 100	> 100	> 100	> 100	> 100	> 100	> 100	> 100	> 100	> 100	> 100	> 100	> 100	> 100	
CCOC(=O)c1c(SC(=O)/C=C/c2ccccc2)n(-c2ccccc2)c(=S)n(-c2ccccc2)c1=O	> 100	> 100		> 100		> 100	> 100	> 100		> 100	> 100	> 100	> 100	> 100	> 100	> 100	> 100	> 100	> 100
S=C(/N=c1/sc(Nc2ccccc2)nc2sc3c(c12)CCCC3)Nc1ccccc1	> 62.5	> 62.5	> 62.5	> 62.5	> 62.5	> 62.5		> 62.5	> 62.5	> 62.5	> 62.5	> 62.5	> 62.5		> 62.5		> 62.5	> 62.5	
O=C(c1ccc(Cl)cc1Cl)N(C(=O)N1CCCCC1)c1ccccc1	> 100	> 100	> 100	> 100	> 100	> 100	> 100	> 100	> 100	> 100	> 100	> 100	> 100		> 100	> 100	> 100	> 100	
O=C(CSc1nnc(Cc2ccccc2)o1)Nc1cccc([N+](=O)[O-])c1	> 100	> 100	> 100	> 100	> 100	> 100	> 100	> 100	> 100	> 100	> 100	> 100	> 100	> 100	> 100	> 100	> 100	> 100	
CC#CC(=O)Nc1ccccc1CC(c1c[nH]c2ccccc12)c1c[nH]c2ccccc12	39.2	57.4	32.1		29.8	44.6	58.3	32.8	25.4	92.3	32.6	38.8	43	57.5	30	37.2	28.3	59	
N#[O+].O=S(=O)([O-])[O-].[NH2-].[NH2-].[NH2-].[NH2-].[NH2-].[Ru+5]		> 100	> 100	> 100	> 100	> 100	> 100	> 100		> 100	> 100	> 100	> 100	> 100	> 100	> 100	> 100	> 100	
CCOC(=O)[C@H]1Nc2ccc(C)cc2C2c3ccccc3CC21 (stereo partly drawn)	> 100	> 100		> 100	> 100	> 100	> 100	> 100	> 100	> 100	> 100	> 100	> 100	> 100	> 100	> 100	> 100	> 100	
COC(=O)c1ccc2c(c1)CC1(C2)Cc2cc3c(cc2C1=O)CCC3 (stereo not drawn)	> 100	46.7	39.8	> 100	21.2	29.2	> 100	> 100	> 100	> 100		> 100	> 100	> 100	> 100	> 100		> 100	> 100
Cc1ccccc1Nc1cn(COCc2ccccc2)c(=O)[nH]c1=O	> 100	> 100	> 100	> 100	> 100	> 100	> 100	> 100	> 100			> 100	> 100	> 100	> 100		> 100	> 100	
CC(=O)O[C@@H]1C=C(C)[C@H](CBr)O[C@@]2(C)CC[C@H](Br)C(C)(C)[C@H]12	> 100	> 100	> 100	> 100	> 100	> 100	> 100	> 100	> 100	> 100	> 100	> 100	> 100	> 100	> 100	> 100	> 100	> 100	
COc1cccc(C2c3cc4c(cc3OC(N3CCCC3)C2C)OCO4)c1 (stereo not drawn)	5.72	52.3		83.8	18.5		37.8	> 100	41.4	> 100		> 100	33.7	> 100	> 100	24.9	34.5	76.8	70.9
COc1cc2c(c(OC)c1OC)-c1ccc(SC)c(=O)cc1C(CC(=O)Oc1ccc([N+](=O)[O-])cc1)C2 (stereo not drawn)		> 49.1	> 38.2	> 40.5	13.9	> 100	> 45.6	> 100	> 100	> 51.3	0.865	1.88	> 37.2	> 100	> 43.1	0.636	11.4	31.4	
COc1cc(C2c3cc4c(cc3[C@@H](Nc3ccccc3)C3CO[C@@H](OC)[C@H]23)OCO4)cc(OC)c1O (stereo partly drawn)	> 25	> 25	8.24	10.6	> 25	6.34	12.4	> 25	8.03	> 25			15.4	12.1	> 25	12.1		> 25	> 25
N#CCCN(CCC#N)c1ccc(C(=O)NN)cc1	> 100	> 100	> 100	> 100	> 100	> 100	> 100	> 100	> 100	> 100	> 100	> 100	> 100	> 100	> 100	> 100	> 100	> 100	
COC(=O)CCC(=O)NC1c2cccc3cccc(c23)Cn2c(=O)n(C)c(=O)n21 (stereo not drawn)	> 100	> 100		> 100	> 100	> 100	> 100	> 100	> 100	> 100		> 100	> 100	> 100	> 100	> 100	> 100	> 100	
COc1ccc2c(c1)OCc1c-2oc2ccccc2c1=O	> 100	> 100		> 100	> 100	> 100	> 100	> 100	> 100	> 100	> 100		> 100	> 100	> 100	> 100	> 100	> 100	
